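Following 48 hours of exposure in 96-well plates, responses at five concentrations were used to interpolate endpoints linearly. TGI: concentration producing complete growth inhibition.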

Drawing on PubChem BioAssay (NCI), this text covers TGI for 22 compounds.

The test system of the first experiment is OVCAR-5 ovarian. The experiment is described as follows: growth of human tumour cells (NCI), 48 h.
`N#Cc1c(-c2ccc(Cl)cc2)c2c(n(C3OC(CO)C(O)C(O)C3O)c1=S)CCCC2` (configuration not stated) yielded a TGI greater than 100 µM.

`O=S(Cc1ccccc1)c1nc2ccccc2nc1-c1cccs1` (configuration not stated) showed a TGI of 31.9 µM.

Take `CC(=O)SCCC(NC(=S)Nc1ccccc1)P(=O)(Oc1ccccc1)Oc1ccccc1` (configuration not stated): the TGI is greater than 100 µM.

In the case of `NC(=Nc1ccccc1Cl)c1ccccc1N`, the TGI is greater than 100 µM.

With `CCN1C[C@]2(C)CC[C@H](O)C34C1C(C[C@@H]32)[C@@]1(O)CC[C@H]2C[C@@H]4[C@@H]1[C@H]2O`, the TGI is greater than 100 µM.

`CC12C=CC(C)(C3C(=O)C4C(C(=O)C31)C1(C)C=CC4(C)S1=O)S2=O` (configuration not stated): the TGI was greater than 100 µM.

Regarding `COc1ccc(-c2c(C(C)=O)c(-c3ccccc3)n(C3OC(CO)C(O)C(O)C3O)c(=S)c2C#N)cc1` (configuration not stated), the TGI was greater than 100 µM.

`O=C(NN1C(=O)C(Cl)C1c1ccc(Cl)cc1)c1c(Cl)c(Cl)c(Cl)c(Cl)c1-c1nc2ccccc2[nH]1` (configuration not stated) had a TGI greater than 100 µM.

The compound `CC1(c2cccc(C3CC4(CCC3=O)OCCCCO4)c2)OCCO1` (configuration not stated) registered a TGI greater than 100 µM.

The subject of another experiment is HT29 colon. The experiment is described as follows: growth of human tumour cells (NCI), 48 h.
Compound `CC1(C)OCN(c2ccc(N3CCOCC3)cc2)Cn2c1nc1ccccc12` returned a TGI greater than 100 µM.

Compound `CC(C)(C)C1=C(Br)C(C(C)(C)C)OP1(=O)O` (configuration not stated) came in with a TGI greater than 100 µM.

In turn, `Cc1c(-c2ccccc2)cc(O)c2nc3ccccc3n12` returned a TGI greater than 100 µM.

For `N[C@@H]1CCN(c2c(F)cc3c(=O)c(C(=O)O)cn4c3c2Oc2c-4ccc3c2ccc2ccccc23)C1`, the TGI is greater than 100 µM.

With `CN(C)/C=C/C(=CC=[N+](C)C)/C=C/N(C)C`, the TGI is greater than 100 µM.

Compound `Cc1ccc(C(=O)O)c(/C=C2\Cc3ccc(C)cc3C2=O)c1` returned a TGI greater than 100 µM.

With `COc1c(=O)cc2cc[nH]c3cc[nH]c1c23`, the TGI is greater than 100 µM.

In turn, `CCCCC1(NN=C2CCCCC2)C(=O)N(c2ccccc2)N(c2ccccc2)C1=O` gave a TGI greater than 100 µM.

Take `CNC1(c2cc3ccccc3s2)CCCCC1`: the TGI was found to be 67.8 µM.

With `N#C[S-].[La+3].c1cnc2c(c1)ccc1cccnc12.c1cnc2c(c1)ccc1cccnc12.c1cnc2c(c1)ccc1cccnc12`, the TGI worked out at 18 µM.

`Cc1cc(C)c2c(=O)cc(-c3cccc4ccccc34)[nH]c2n1` came in with a TGI of 2.31 µM.

Compound `N#Cc1c(-c2ccc(Cl)cc2)c2c(n(C3OC(CO)C(O)C(O)C3O)c1=S)CCCC2` (configuration not stated) gave a TGI greater than 100 µM.

`O=S(Cc1ccccc1)c1nc2ccccc2nc1-c1cccs1` (configuration not stated) registered a TGI of 27.1 µM.

`O=C1/C(=C\c2ccc([N+](=O)[O-])cc2)N(S(=O)(=O)c2ccccc2)c2ncccc21` had a TGI of 35 µM.

Take `CC(=O)SCCC(NC(=S)Nc1ccccc1)P(=O)(Oc1ccccc1)Oc1ccccc1` (configuration not stated): the TGI is greater than 100 µM.

With `NC(=Nc1ccccc1Cl)c1ccccc1N`, the TGI was greater than 100 µM.

The compound `CCN1C[C@]2(C)CC[C@H](O)C34C1C(C[C@@H]32)[C@@]1(O)CC[C@H]2C[C@@H]4[C@@H]1[C@H]2O` had a TGI greater than 100 µM.

In the case of `CC12C=CC(C)(C3C(=O)C4C(C(=O)C31)C1(C)C=CC4(C)S1=O)S2=O` (configuration not stated), the TGI is greater than 100 µM.

For `CCC(CC)NC1=C(NC(C)=O)C(=O)c2ccccc2C1=O`, the TGI was greater than 50 µM.

The compound `COc1ccc(-c2c(C(C)=O)c(-c3ccccc3)n(C3OC(CO)C(O)C(O)C3O)c(=S)c2C#N)cc1` (configuration not stated) yielded a TGI greater than 100 µM.

`O=C(NN1C(=O)C(Cl)C1c1ccc(Cl)cc1)c1c(Cl)c(Cl)c(Cl)c(Cl)c1-c1nc2ccccc2[nH]1` (configuration not stated): the TGI came out at 75.8 µM.

With `CC1(c2cccc(C3CC4(CCC3=O)OCCCCO4)c2)OCCO1` (configuration not stated), the TGI is greater than 100 µM.

The test system of the next experiment is NCI-H522 lung. The experiment is described as follows: growth of human tumour cells (NCI), 48 h.
In turn, `CC1(C)OCN(c2ccc(N3CCOCC3)cc2)Cn2c1nc1ccccc12` displayed a TGI greater than 100 µM.

Compound `CC(C)(C)C1=C(Br)C(C(C)(C)C)OP1(=O)O` (configuration not stated) gave a TGI greater than 100 µM.

On to `Cc1c(-c2ccccc2)cc(O)c2nc3ccccc3n12`, for which the TGI is greater than 100 µM.

For `N[C@@H]1CCN(c2c(F)cc3c(=O)c(C(=O)O)cn4c3c2Oc2c-4ccc3c2ccc2ccccc23)C1`, the TGI is greater than 100 µM.

`CN(C)/C=C/C(=CC=[N+](C)C)/C=C/N(C)C` displayed a TGI greater than 100 µM.

Turning to `Cc1ccc(C(=O)O)c(/C=C2\Cc3ccc(C)cc3C2=O)c1`, the TGI is greater than 100 µM.

In turn, `COc1c(=O)cc2cc[nH]c3cc[nH]c1c23` displayed a TGI of 12.1 µM.

Compound `CCCCC1(NN=C2CCCCC2)C(=O)N(c2ccccc2)N(c2ccccc2)C1=O` showed a TGI greater than 100 µM.

As for `CNC1(c2cc3ccccc3s2)CCCCC1`, the TGI was 29.1 µM.

Compound `N#C[S-].[La+3].c1cnc2c(c1)ccc1cccnc12.c1cnc2c(c1)ccc1cccnc12.c1cnc2c(c1)ccc1cccnc12` yielded a TGI of 16 µM.

For the compound `N#Cc1c(-c2ccc(Cl)cc2)c2c(n(C3OC(CO)C(O)C(O)C3O)c1=S)CCCC2` (configuration not stated), the TGI was greater than 100 µM.

As for `O=S(Cc1ccccc1)c1nc2ccccc2nc1-c1cccs1` (configuration not stated), the TGI worked out at 3.4 µM.

`O=C1/C(=C\c2ccc([N+](=O)[O-])cc2)N(S(=O)(=O)c2ccccc2)c2ncccc21` had a TGI of 54.4 µM.

In turn, `CC(=O)SCCC(NC(=S)Nc1ccccc1)P(=O)(Oc1ccccc1)Oc1ccccc1` (configuration not stated) showed a TGI greater than 100 µM.

`NC(=Nc1ccccc1Cl)c1ccccc1N`: the TGI is greater than 100 µM.

With `CCN1C[C@]2(C)CC[C@H](O)C34C1C(C[C@@H]32)[C@@]1(O)CC[C@H]2C[C@@H]4[C@@H]1[C@H]2O`, the TGI is greater than 100 µM.

The compound `CC12C=CC(C)(C3C(=O)C4C(C(=O)C31)C1(C)C=CC4(C)S1=O)S2=O` (configuration not stated) yielded a TGI greater than 100 µM.

Regarding `CCC(CC)NC1=C(NC(C)=O)C(=O)c2ccccc2C1=O`, the TGI was greater than 50 µM.

`COc1ccc(-c2c(C(C)=O)c(-c3ccccc3)n(C3OC(CO)C(O)C(O)C3O)c(=S)c2C#N)cc1` (configuration not stated) came in with a TGI greater than 100 µM.

On to `O=C(NN1C(=O)C(Cl)C1c1ccc(Cl)cc1)c1c(Cl)c(Cl)c(Cl)c(Cl)c1-c1nc2ccccc2[nH]1` (configuration not stated), for which the TGI amounted to 39.7 µM.

In turn, `CC1(c2cccc(C3CC4(CCC3=O)OCCCCO4)c2)OCCO1` (configuration not stated) returned a TGI greater than 100 µM.

The test system of another experiment is M14 melanoma. The experiment is described as follows: growth of human tumour cells (NCI), 48 h.
With `CC1(C)OCN(c2ccc(N3CCOCC3)cc2)Cn2c1nc1ccccc12`, the TGI was greater than 100 µM.

For the compound `CC(C)(C)C1=C(Br)C(C(C)(C)C)OP1(=O)O` (configuration not stated), the TGI is greater than 100 µM.

In turn, `Cc1c(-c2ccccc2)cc(O)c2nc3ccccc3n12` returned a TGI greater than 100 µM.

On to `N[C@@H]1CCN(c2c(F)cc3c(=O)c(C(=O)O)cn4c3c2Oc2c-4ccc3c2ccc2ccccc23)C1`, for which the TGI is greater than 100 µM.

Take `CN(C)/C=C/C(=CC=[N+](C)C)/C=C/N(C)C`: the TGI is greater than 100 µM.

Take `Cc1ccc(C(=O)O)c(/C=C2\Cc3ccc(C)cc3C2=O)c1`: the TGI is greater than 100 µM.

Turning to `COc1c(=O)cc2cc[nH]c3cc[nH]c1c23`, the TGI was greater than 100 µM.

Compound `CCCCC1(NN=C2CCCCC2)C(=O)N(c2ccccc2)N(c2ccccc2)C1=O` showed a TGI greater than 100 µM.

On to `CNC1(c2cc3ccccc3s2)CCCCC1`, for which the TGI was 35.7 µM.

For the compound `N#C[S-].[La+3].c1cnc2c(c1)ccc1cccnc12.c1cnc2c(c1)ccc1cccnc12.c1cnc2c(c1)ccc1cccnc12`, the TGI turned out to be 3.57 µM.

Compound `Cc1cc(C)c2c(=O)cc(-c3cccc4ccccc34)[nH]c2n1` yielded a TGI greater than 51.4 µM.

In the case of `N#Cc1c(-c2ccc(Cl)cc2)c2c(n(C3OC(CO)C(O)C(O)C3O)c1=S)CCCC2` (configuration not stated), the TGI is greater than 100 µM.

In turn, `O=S(Cc1ccccc1)c1nc2ccccc2nc1-c1cccs1` (configuration not stated) came in with a TGI of 25.4 µM.

In the case of `O=C1/C(=C\c2ccc([N+](=O)[O-])cc2)N(S(=O)(=O)c2ccccc2)c2ncccc21`, the TGI came to 41.2 µM.

In turn, `CC(=O)SCCC(NC(=S)Nc1ccccc1)P(=O)(Oc1ccccc1)Oc1ccccc1` (configuration not stated) returned a TGI greater than 100 µM.
